Holding throughout (assay): Poison Plate Assay, MIC and synergy of combinations
Holding throughout (type): cell-based

For assay [1], the system named is Coriolus versicolor CTB863A. The note with it: Trametes versicolor, 336 h, ppm total active ingredient, growth evaluated after two weeks, 27° C., 70% relative humidity, read-out: MIC-values (minimum inhibitory concentration). How it is done:
(§1) • Test models: Fungi: to each well of a 24-well microtiter plate, 1000 μl of a rich (Potato Dextrose Agar, PDA: 4 g potato infusion, 20 g bacto dextrose and 15 g bacto agar in 1 liter deionised water) or poor (Glucose Agar, GA: 10 g glucose, 1.5 g K2HPO4, 2 g KH2PO4, 1 g (NH4)2SO4, 0.5 g MgSO4 and 12.5 g agar in 1 liter deionised water) medium containing the appropriate combination of the test compounds in one of the concentrations of a dose series is added. The nutrient medium is inoculated with the test fungi by adding a spore/mycelium suspension (10 μl) or a small piece of agar from the margin of an actively growing colony and incubated under dark at 27° C. with 70% relative humidity. The growth of the fungi is evaluated after two weeks. • Bacteria: to each well of a 24-well microtiter plate, 1000 μL Tryptose Agar (TA, 20 g bacto tryptose agar, 5 g sodium chloride, 1 g bacto dextrose and 15 g agar in 1 liter deionised water), containing the test compounds in one of the concentrations of a dose series is added. The nutrient medium is inoculated by adding 10 μl of an actively growing liquid culture of the test bacteria in tryptose broth (without agar), and incubated under dark at 27° C. with 70% relative humidity.
(§2) When the Synergy Index is greater than 1.0, antagonism is indicated. When the SI is equal to 1.0, additivity is indicated.

Assay [2] deals with Chaetomium globosum ATCC6205. The note with it: ATCC6205, 336 h, ppm total active ingredient, growth evaluated after two weeks, 27° C., 70% relative humidity, read-out: MIC-values (minimum inhibitory concentration). As to the method:
as §1, §2

In assay [3] the test system is Ulocladium atrum IMI214699a. The note with it: Alternaria atra, 336 h, ppm total active ingredient, growth evaluated after two weeks, 27° C., 70% relative humidity, read-out: MIC-values (minimum inhibitory concentration). How it is done:
as §1
A. G. Nass (1957) “Some aspects of the notions additivity, synergism and antagonism in the simultaneous activity of two antibacterial agents in vitro” Arch. intern. […]

From patent US20100305161A1, “COMBINATIONS OF FUNGICIDAL AZOLES AND PYRION COMPOUNDS” (priority 2007, published 2010) come the findings set out here.

`CCCC1COC(Cn2cncn2)(c2ccc(Cl)cc2Cl)O1` (stereo not shown) [(I-m) + (II-a) 100 + 0, 1-[[2-(2,4-dichlorophenyl)-4-propyl-1,3-dioxolan-2-yl]methyl]-1H-1,2,4-triazole]: the MIC in assay [1] was determined as 1.88 µg/mL; in assay [2] it was 5.01 µg/mL; in assay [3], 33.3 µg/mL.
Regarding `[O-][n+]1ccccc1SSc1cccc[n+]1[O-]` [(I-n) + (II-g) 0 + 100, pyrion disulfide], the MIC in assay [3] was determined as 1.88 µg/mL.
